In ChEMBL document CHEMBL1157462, “Sodium late current blockers in ischemia reperfusion: is the bullet magic?” (J Med Chem, 2008):
Active and inactive are the calls of the source. The calls are words filed in the database; no cut-off is given here.

What was measured:
[1] = system: Heart; experiment: Inhibition of global ischemia-induced diastolic contracture in isolated Langendorff perfused guinea pig model heart at 1 uM after 15 mins; format: functional, Cavia porcellus
[2] = target: T1, Sodium channel protein type 5 subunit alpha (Homo sapiens, UniProt Q14524); experiment: Inhibition of human sodium Nav1.5 channel expressed in HEK293 cells assessed as inhibition of veratridine-induced late sodium current elicited at -30 mV from holding potential of -110 mV at 10 uM by patch clamp technique; format: cell-based; details: for inhibition at 10 µM: HEK293, human
[3] = system: Cardiac atrium; experiment: tissue or blood; details: Rattus norvegicus, Wistar, 0.25 h, read-out: INH
Description: (§1) Inhibition of veratridine-induced diastolic contracture in Wistar rat atrium assessed as inhibition of systolic isometric tension of at 1 uM 15 mins

[4] = target: T1, Sodium channel protein type 5 subunit alpha; experiment: Inhibition of human sodium Nav1.5 channel expressed in HEK293 cells assessed as inhibition of veratridine-induced late sodium current elicited at -30 mV from holding potential of -90 mV at 10 uM by patch clamp technique; format: cell-based; details: for inhibition at 10 µM: HEK293, human
[5] = system: Oryctolagus cuniculus; experiment: Reversal of ischemia-induced ST segment elevation in anesthetized New Zealand white rabbit at 2.5 mg/kg, iv; format: functional, organism-based; set-up: dose 2.5 mg/kg
[6] = system: Oryctolagus cuniculus; experiment: Effect on heart rate in anesthetized New Zealand white rabbit myocardial ischemia model assessed as beats per minute at 2.5 mg/kg; format: functional
[7] = system: Oryctolagus cuniculus; experiment: Effect on heart rate in anesthetized New Zealand white rabbit myocardial ischemia model assessed as beats per minute at 0.63 mg/kg; format: functional
[8] = system: Oryctolagus cuniculus; experiment: Effect on heart rate in anesthetized New Zealand white rabbit myocardial ischemia model assessed as beats per minute at 0.04 mg/kg; format: functional
[9] = system: Oryctolagus cuniculus; experiment: Reversal of ischemia-induced ST segment elevation in iv dosed anesthetized New Zealand white rabbit; format: functional
[10] = system: Oryctolagus cuniculus; experiment: Effect on heart rate in anesthetized New Zealand white rabbit myocardial ischemia model assessed as beats per minute at 0.16 mg/kg; format: functional
[11] = system: Cardiac atrium; details: Rattus norvegicus, Wistar, 1 uM
Description: as §1

[12] = target: T1, Sodium channel protein type 5 subunit alpha; experiment: Inhibition of sodium Nav1.5 channel assessed as inhibition of late sodium current elicited at -30 mV from holding potential of -110 mV
[13] = target: T1, Sodium channel protein type 5 subunit alpha; experiment: Inhibition of sodium Nav1.5 channel assessed as inhibition of late sodium current elicited at -30 mV from holding potential of -90 mV
[14] = system: Oryctolagus cuniculus; experiment: Effect on heart rate in anesthetized New Zealand white rabbit myocardial ischemia model assessed as beats per minute at 0.01 mg/kg; format: functional
[15] = system: Oryctolagus cuniculus; experiment: Reversal of ischemia-induced ST segment elevation in po dosed anesthetized New Zealand white rabbit; format: functional
[16] = system: Oryctolagus cuniculus; experiment: Ratio of ED50 for reversal of ischemia-induced ST segment elevation in po dosed New Zealand white rabbit to ED50 for reversal of ischemia-induced ST segment elevation iv dosed New Zealand white rabbit; format: functional

T1 sequence (Q14524 whole entry): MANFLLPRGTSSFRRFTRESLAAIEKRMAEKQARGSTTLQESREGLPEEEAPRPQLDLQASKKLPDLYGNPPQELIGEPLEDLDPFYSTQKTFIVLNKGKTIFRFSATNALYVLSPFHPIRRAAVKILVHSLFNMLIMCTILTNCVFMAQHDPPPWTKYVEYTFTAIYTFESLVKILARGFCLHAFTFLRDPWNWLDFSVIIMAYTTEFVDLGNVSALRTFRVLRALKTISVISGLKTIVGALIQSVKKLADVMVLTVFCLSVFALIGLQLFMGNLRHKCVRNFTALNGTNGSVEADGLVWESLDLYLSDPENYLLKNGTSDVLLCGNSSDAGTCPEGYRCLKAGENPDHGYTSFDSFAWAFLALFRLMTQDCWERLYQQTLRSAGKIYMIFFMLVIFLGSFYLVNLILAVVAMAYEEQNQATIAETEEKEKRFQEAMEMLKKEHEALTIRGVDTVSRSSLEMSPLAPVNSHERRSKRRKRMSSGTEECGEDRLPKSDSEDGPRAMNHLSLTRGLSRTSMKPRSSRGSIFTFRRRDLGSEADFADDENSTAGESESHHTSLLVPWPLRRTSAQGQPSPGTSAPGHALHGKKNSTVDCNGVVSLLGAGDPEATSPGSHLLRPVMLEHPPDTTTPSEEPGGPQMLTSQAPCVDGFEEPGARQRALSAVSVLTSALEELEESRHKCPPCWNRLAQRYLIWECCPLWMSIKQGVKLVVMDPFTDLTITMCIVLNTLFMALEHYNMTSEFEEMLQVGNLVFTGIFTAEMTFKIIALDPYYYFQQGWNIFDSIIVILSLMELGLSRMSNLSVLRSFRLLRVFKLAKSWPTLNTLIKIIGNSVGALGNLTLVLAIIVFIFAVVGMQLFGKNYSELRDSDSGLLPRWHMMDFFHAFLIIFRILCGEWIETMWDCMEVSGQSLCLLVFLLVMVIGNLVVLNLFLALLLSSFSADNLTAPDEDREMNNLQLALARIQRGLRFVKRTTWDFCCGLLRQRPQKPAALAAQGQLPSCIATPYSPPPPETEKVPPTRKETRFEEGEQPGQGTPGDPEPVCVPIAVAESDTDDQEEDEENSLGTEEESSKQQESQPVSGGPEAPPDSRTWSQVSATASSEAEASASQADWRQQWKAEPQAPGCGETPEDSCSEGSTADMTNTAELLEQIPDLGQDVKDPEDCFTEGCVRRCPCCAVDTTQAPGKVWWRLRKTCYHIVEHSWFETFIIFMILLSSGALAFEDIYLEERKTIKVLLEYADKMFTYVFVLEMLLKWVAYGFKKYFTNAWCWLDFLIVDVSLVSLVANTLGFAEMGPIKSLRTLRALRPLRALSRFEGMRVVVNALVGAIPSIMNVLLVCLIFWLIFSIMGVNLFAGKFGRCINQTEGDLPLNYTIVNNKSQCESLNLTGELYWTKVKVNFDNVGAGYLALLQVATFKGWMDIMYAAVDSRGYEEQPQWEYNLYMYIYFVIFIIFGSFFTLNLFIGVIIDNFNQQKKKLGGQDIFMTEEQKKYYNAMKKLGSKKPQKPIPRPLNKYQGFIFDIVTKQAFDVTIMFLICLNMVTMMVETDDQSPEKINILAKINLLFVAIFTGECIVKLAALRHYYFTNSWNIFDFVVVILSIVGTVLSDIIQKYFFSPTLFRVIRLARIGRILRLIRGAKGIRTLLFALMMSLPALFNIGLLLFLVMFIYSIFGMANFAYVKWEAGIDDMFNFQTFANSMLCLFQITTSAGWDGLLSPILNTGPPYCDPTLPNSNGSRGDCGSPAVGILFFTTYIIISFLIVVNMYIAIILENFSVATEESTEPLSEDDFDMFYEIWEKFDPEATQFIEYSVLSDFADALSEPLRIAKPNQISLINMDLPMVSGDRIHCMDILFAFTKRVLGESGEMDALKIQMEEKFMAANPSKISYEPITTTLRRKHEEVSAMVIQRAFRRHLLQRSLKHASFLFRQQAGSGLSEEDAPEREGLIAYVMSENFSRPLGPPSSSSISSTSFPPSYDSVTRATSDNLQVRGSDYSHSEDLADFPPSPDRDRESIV

Structure (SMILES) | inhibition (INH) [1] | inhibition at 10 µM [2] | inhibition at 1 µM [3] | inhibition at 10 µM [4] | also measured
COc1ccc(CCN(C)CCCOc2nsc(-c3ccccc3)n2)cc1OC | 39% | 60% | 45% | 60% | 
C=C(CN[C@@H]1COc2ccccc2SC1)CSc1ccccc1OC |  | 36% | 26% | 37% | 
CCCO[C@@H](CN[C@@H]1COc2ccccc2SC1)CSc1ccccc1OC |  | 27% | 30% | 27% | 
COc1ccccc1SC[C@@H](O)CN[C@@H]1COc2ccccc2SC1 | 14% | 69% | 54% | 75% | 
COc1ccccc1SC[C@@H](C)CN[C@H]1COc2ccccc2SC1 |  | 31% | 25% | 41% | 
COc1ccccc1SC[C@H](C)CN[C@H]1COc2ccccc2SC1 |  | 30% | 26% | 44% | 
CCO[C@@H](CN[C@@H]1COc2ccccc2SC1)CSc1ccccc1OC | 33% | 22% | 46% | 34% | 
COc1cc2c(cc1OC)CC(=O)N(CCCN(C)C[C@H]1Cc3cc(OC)c(OC)cc31)CC2 [IVABRADINE] |  |  |  |  | Activity [5]: Active; Activity [6]: -112.6 bpm; Activity [7]: -69.4 bpm; Activity [8]: -3.4 bpm; ED50 [9]: 0.59 mg/kg; Activity [10]: -20.7 bpm
COc1ccccc1SCC(O)CN[C@H]1COc2ccccc2SC1 (mixture of isomers) |  | 16% | 26% | 21% | 
COc1ccccc1SCCCN[C@@H]1COc2ccccc2SC1 |  |  | 3% |  | 
COc1ccccc1SCC(O)CN[C@@H]1COc2ccccc2SC1 (mixture of isomers) |  | 37% | 50% | 42% | 
COc1ccccc1SC[C@H](O)CN[C@@H]1COc2ccccc2SC1 |  | 26% | 7% | 30% | 
COc1ccccc1SC[C@H](CN[C@@H]1COc2ccccc2SC1)OC | 64% | 12% | 45% | 27% | 
NC1=N[C@H](O)[C@H]2[C@H]3O[C@]4(O)O[C@@H]([C@@H](O)[C@@]2(N1)[C@@H]4O)[C@]3(O)CO [TETRODOTOXIN] |  |  |  |  | inhibition [11]: 64%; inhibition (INH) ([2]; human, hek293, 10 µM): 79%; inhibition (INH) ([4]; human, hek293, 10 µM): 87%
COc1ccccc1SC[C@@H](C)CN[C@@H]1COc2ccccc2SC1 | 65% | 53% | 74% | 70% | IC50 [12]: 2560 nM; Activity [6]: -8.6 bpm; Activity [7]: -3.2 bpm; IC50 [13]: 5.77 µM; Activity [8]: 0.3 bpm; ED50 [9]: 0.05 mg/kg; Activity [10]: -6.4 bpm; Activity [14]: -3.2 bpm; ED50 [15]: 0.13 mg/kg; Ratio ED50 [16]: 2.6
COc1ccccc1SC[C@H](C)CN[C@@H]1COc2ccccc2SC1 |  | 22% | 38% | 34% | 
CCC[C@@H](CN[C@@H]1COc2ccccc2SC1)CSc1ccccc1OC |  | 17% | 23% | 23% | 
COc1ccccc1SC[C@H](CN[C@@H]1COc2ccccc2SC1)OC(=O)c1ccccc1 |  |  | 3% |  | 
COc1ccccc1SC[C@H](CN[C@@H]1COc2ccccc2SC1)OC(C)=O |  |  | 9% |  | 
COc1ccccc1SC[C@H](CN[C@@H]1COc2ccccc2SC1)C(C)C | 31% | 31% | 90% | 34% | 
CC[C@@H](CN[C@@H]1COc2ccccc2SC1)CSc1ccccc1OC | 68% | 46% | 86% | 54% | 
COc1ccccc1OCC(O)CN1CCN(CC(=O)Nc2c(C)cccc2C)CC1 (configuration not stated) [RANOLAZINE] |  | 11% |  | 19% | ED50 [9]: > 2.5 mg/kg
COc1ccccc1SCC(CN[C@@H]1COc2ccccc2SC1)=C(C)C | 16% | 31% | 42% | 37% | 
COc1ccccc1SC[C@@H](F)CN[C@@H]1COc2ccccc2SC1 |  | 11% | 32% | 19% | 
